Assay results reported in patent publication US20250042857A1, “SOS1 Inhibitor With Pyrido-Fused Six-Membered Ring Structure” (HAIHE BIOPHARMA CO., LTD., priority 2021, published 2025).

Experiments:
KRAS-G12C/SOS1 = KRAS-G12C/SOS1 (Homo sapiens (Human), UniProt Q07889); assay: Detection of inhibitory effects of compounds on KRAS-G12C/SOS1 (KRASG12C/SOS binding kit, HTRF); conditions: Em665/620, read-out: IC50, inhibitory activity on interaction of KRAS-G12C/SOS1
How it was run: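 HTRF binding of Tag2-KRAS-G12C to Tag1-SOS1 with compounds (10-point 3-fold dilution from 5,000 nM) for 15 min at room temperature, then anti-Tag1-Tb and anti-Tag2-XL665 for 120 min at 4° C. Em665/620 read; inhibition normalised to control wells, IC50 from variable-slope log(inhibitor) fit.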

p-ERK of PC-9 cells = assay: p-ERK HTRF assay in PC-9 cells; assay type: cell-based; conditions: Homo sapiens, PC-9, 1 h, PC-9 lung cancer cells, 1 hour treatment, read-out: IC50, inhibitory activity on p-ERK of PC-9 cells
How it was run: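 PC-9 lung cancer cells plated overnight, then exposed 1 h at 37 °C to a 10-point compound series (10,000–[…] nM final, 0.1% DMSO). After 1 h lysis, phospho-ERK1/2 (Thr202/Tyr204) measured by HTRF at 665/615 nm. Percent inhibition calculated from max and min signals.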

Chain of KRAS-G12C/SOS1 (Q07889 whole entry, stated change not applied): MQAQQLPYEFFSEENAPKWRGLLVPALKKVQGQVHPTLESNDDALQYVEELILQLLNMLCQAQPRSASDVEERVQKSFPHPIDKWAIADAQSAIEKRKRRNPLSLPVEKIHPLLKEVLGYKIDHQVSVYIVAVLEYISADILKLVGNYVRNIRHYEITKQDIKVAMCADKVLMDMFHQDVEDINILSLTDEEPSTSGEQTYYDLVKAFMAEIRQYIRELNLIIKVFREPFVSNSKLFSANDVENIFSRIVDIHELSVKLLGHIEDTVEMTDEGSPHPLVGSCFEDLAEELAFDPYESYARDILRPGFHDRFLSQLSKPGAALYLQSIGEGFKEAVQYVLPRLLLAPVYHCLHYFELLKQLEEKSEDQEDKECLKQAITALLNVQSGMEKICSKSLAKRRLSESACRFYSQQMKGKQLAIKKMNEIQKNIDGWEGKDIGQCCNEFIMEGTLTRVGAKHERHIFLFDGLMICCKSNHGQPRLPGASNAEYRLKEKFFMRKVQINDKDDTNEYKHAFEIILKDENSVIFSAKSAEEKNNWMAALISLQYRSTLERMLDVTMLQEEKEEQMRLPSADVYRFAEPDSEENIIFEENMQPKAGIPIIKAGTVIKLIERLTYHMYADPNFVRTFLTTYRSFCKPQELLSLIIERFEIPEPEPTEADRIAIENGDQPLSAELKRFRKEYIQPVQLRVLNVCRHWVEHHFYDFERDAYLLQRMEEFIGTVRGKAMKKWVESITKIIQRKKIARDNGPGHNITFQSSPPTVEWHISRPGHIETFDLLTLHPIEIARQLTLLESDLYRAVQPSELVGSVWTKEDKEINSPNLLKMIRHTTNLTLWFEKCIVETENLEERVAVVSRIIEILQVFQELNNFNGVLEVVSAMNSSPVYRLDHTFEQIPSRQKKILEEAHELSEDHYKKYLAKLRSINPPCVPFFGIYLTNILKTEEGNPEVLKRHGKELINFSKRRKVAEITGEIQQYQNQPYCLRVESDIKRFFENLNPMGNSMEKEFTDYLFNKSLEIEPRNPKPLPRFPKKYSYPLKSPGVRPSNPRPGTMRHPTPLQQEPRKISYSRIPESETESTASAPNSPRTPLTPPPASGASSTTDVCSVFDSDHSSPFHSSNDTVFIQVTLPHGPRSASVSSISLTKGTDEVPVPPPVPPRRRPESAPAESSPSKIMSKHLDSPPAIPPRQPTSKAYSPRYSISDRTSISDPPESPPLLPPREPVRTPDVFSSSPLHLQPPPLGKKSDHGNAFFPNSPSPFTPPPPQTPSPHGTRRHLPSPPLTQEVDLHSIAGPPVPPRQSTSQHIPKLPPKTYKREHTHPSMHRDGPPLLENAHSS

C[C@@H](Nc1ccnc2cnc(C3(O)CCN(C(=O)COC(F)F)CC3)cc12)c1cccc(C(F)F)c1F [Compound B-141]
IC50 (KRAS-G12C/SOS1): ≤ 100 nM
IC50 (p-ERK of PC-9 cells): ≤ 300 nM

C[C@@H](Nc1ccnc2cnc(C3(O)CCN(C(=O)[C@H]4C[C@H](O)CN4)CC3)cc12)c1cccc(C(F)F)c1F [Compound B-144]
IC50 (KRAS-G12C/SOS1): ≤ 100 nM
IC50 (p-ERK of PC-9 cells): > 1000 nM

C[C@@H](Nc1ccnc2cnc(C3(O)CCN(C(=O)[C@H]4C[C@@H](O)CN4)CC3)cc12)c1cccc(C(F)F)c1F [Compound B-145]
IC50 (KRAS-G12C/SOS1): ≤ 100 nM
IC50 (p-ERK of PC-9 cells): > 1000 nM

C[C@@H](Nc1ccnc2cnc(C3(O)CCN(C(=O)[C@H]4C[C@@H](O)CN4C)CC3)cc12)c1cccc(C(F)F)c1F [Compound B-147]
IC50 (KRAS-G12C/SOS1): ≤ 100 nM
IC50 (p-ERK of PC-9 cells): > 1000 nM

C[C@@H](Nc1ccnc2cnc(C3(O)CCN(C(=O)CN4CCOCC4)CC3)cc12)c1cccc(C(F)F)c1F [Compound B-148]
IC50 (KRAS-G12C/SOS1): ≤ 100 nM
IC50 (p-ERK of PC-9 cells): ≤ 300 nM

C[C@@H](Nc1ccnc2cnc(C3(O)CCN(C(=O)CN4CCC(O)CC4)CC3)cc12)c1cccc(C(F)F)c1F [Compound B-149]
IC50 (KRAS-G12C/SOS1): ≤ 100 nM
IC50 (p-ERK of PC-9 cells): > 1000 nM

C[C@@H](Nc1ccnc2cnc(C3(O)CCN(C(=O)CN4CC[C@@H](O)C4)CC3)cc12)c1cccc(C(F)F)c1F [Compound B-150]
IC50 (KRAS-G12C/SOS1): ≤ 100 nM
IC50 (p-ERK of PC-9 cells): > 1000 nM

C[C@@H](Nc1ccnc2cnc(C3(O)CCN(C(=O)CN4CC[C@H](O)C4)CC3)cc12)c1cccc(C(F)F)c1F [Compound B-151]
IC50 (KRAS-G12C/SOS1): ≤ 100 nM
IC50 (p-ERK of PC-9 cells): > 1000 nM

C[C@@H](Nc1ccnc2cnc(C3(O)CCN(C4COCC4O)CC3)cc12)c1cccc(C(F)F)c1F (some centres unmarked) [Compound B-152]
IC50 (KRAS-G12C/SOS1): ≤ 100 nM
IC50 (p-ERK of PC-9 cells): 300 to 1000 nM

Cc1nnc(N2CCC(O)(c3cc4c(N[C@H](C)c5cccc(C(F)F)c5F)ccnc4cn3)CC2)o1 [Compound B-153]
IC50 (KRAS-G12C/SOS1): ≤ 100 nM
IC50 (p-ERK of PC-9 cells): 300 to 1000 nM

C[C@@H](Nc1ccnc2cnc(C3(O)CCN(c4ncc(C#N)cn4)CC3)cc12)c1cccc(C(F)F)c1F [Compound B-156]
IC50 (KRAS-G12C/SOS1): ≤ 100 nM
IC50 (p-ERK of PC-9 cells): ≤ 300 nM

C[C@@H](Nc1ccnc2cnc(C3(O)CCN(Cc4ccccn4)CC3)cc12)c1cccc(C(F)F)c1F [Compound B-159]
IC50 (KRAS-G12C/SOS1): ≤ 100 nM
IC50 (p-ERK of PC-9 cells): 300 to 1000 nM

C[C@@H](Nc1ccnc2cnc(C3(O)CCN(C(=O)N(C)C)CC3)cc12)c1cccc(C(F)F)c1F [Compound B-160]
IC50 (KRAS-G12C/SOS1): ≤ 100 nM
IC50 (p-ERK of PC-9 cells): ≤ 300 nM

C[C@@H](Nc1ccnc2cnc(C3(O)CCN(C(=O)N4CC[C@H](O)C4)CC3)cc12)c1cccc(C(F)F)c1F [Compound B-161]
IC50 (KRAS-G12C/SOS1): ≤ 100 nM
IC50 (p-ERK of PC-9 cells): 300 to 1000 nM

C[C@@H](Nc1ccnc2cnc(C3(O)CCN(C(=O)N4CC[C@@H](O)C4)CC3)cc12)c1cccc(C(F)F)c1F [Compound B-162]
IC50 (KRAS-G12C/SOS1): ≤ 100 nM
IC50 (p-ERK of PC-9 cells): 300 to 1000 nM

C[C@@H](Nc1ccnc2cnc(C3(O)CCN(C(=O)NCCO)CC3)cc12)c1cccc(C(F)F)c1F [Compound B-163]
IC50 (KRAS-G12C/SOS1): ≤ 100 nM
IC50 (p-ERK of PC-9 cells): ≤ 300 nM

C[C@@H](Nc1ccnc2cnc(C3(O)CCN(C(=O)N(C)CCO)CC3)cc12)c1cccc(C(F)F)c1F [Compound B-164]
IC50 (KRAS-G12C/SOS1): ≤ 100 nM
IC50 (p-ERK of PC-9 cells): ≤ 300 nM

CC(=O)N1C2CCC1CN(c1cc3c(N[C@H](C)c4cccc(C#N)c4F)ccnc3cn1)C2 [Compound B-165]
IC50 (KRAS-G12C/SOS1): ≤ 100 nM
IC50 (p-ERK of PC-9 cells): 300 to 1000 nM

C[C@@H](Nc1ccnc2cnc(C3(O)CCN(C(=O)CO)CC3)cc12)c1cccc(C#N)c1F [Compound B-167]
IC50 (KRAS-G12C/SOS1): ≤ 100 nM
IC50 (p-ERK of PC-9 cells): > 1000 nM

C[C@@H](Nc1ccnc2cnc(C3(O)CCN(CCO)CC3)cc12)c1cccc(C#N)c1F [Compound B-168]
IC50 (KRAS-G12C/SOS1): 100 to 500 nM
IC50 (p-ERK of PC-9 cells): > 1000 nM

CC(=O)N1CCN(c2cc3c(N[C@H](C)c4cccc(C(F)F)c4F)ccnc3c(-c3cnn(C)c3)n2)CC1 [Compound B-169]
IC50 (KRAS-G12C/SOS1): ≤ 100 nM
IC50 (p-ERK of PC-9 cells): ≤ 300 nM

CC(=O)N1CCC(O)(c2cc3c(N[C@H](C)c4cccc(C(F)F)c4F)ccnc3c(-c3cnn(C)c3)n2)CC1 [Compound B-170]
IC50 (KRAS-G12C/SOS1): ≤ 100 nM
IC50 (p-ERK of PC-9 cells): ≤ 300 nM

C[C@@H](Nc1ccnc2c(-c3cnn(C)c3)nc(C3(O)CCN(C(=O)CO)CC3)cc12)c1cccc(C(F)F)c1F [Compound B-171]
IC50 (KRAS-G12C/SOS1): ≤ 100 nM
IC50 (p-ERK of PC-9 cells): ≤ 300 nM

C[C@H](O)C(=O)N1CCC(O)(c2cc3c(N[C@H](C)c4cccc(C(F)F)c4F)ccnc3c(-c3cnn(C)c3)n2)CC1 [Compound B-172]
IC50 (KRAS-G12C/SOS1): 100 to 500 nM
IC50 (p-ERK of PC-9 cells): 300 to 1000 nM

COc1nc(C2(O)CCN(C(=O)CO)CC2)cc2c(N[C@H](C)c3cccc(C(F)F)c3F)ccnc12 [Compound B-173]
IC50 (KRAS-G12C/SOS1): ≤ 100 nM
IC50 (p-ERK of PC-9 cells): ≤ 300 nM

COc1nc(C2(O)CCN(C(=O)[C@H](C)O)CC2)cc2c(N[C@H](C)c3cccc(C(F)F)c3F)ccnc12 [Compound B-174]
IC50 (KRAS-G12C/SOS1): 100 to 500 nM
IC50 (p-ERK of PC-9 cells): 300 to 1000 nM

Cc1nc(C2(O)CCN(C(=O)CO)CC2)cc2c(N[C@H](C)c3cccc(C(F)F)c3F)ccnc12 [Compound B-175]
IC50 (KRAS-G12C/SOS1): ≤ 100 nM
IC50 (p-ERK of PC-9 cells): ≤ 300 nM

Cc1nc(C2(O)CCN(C(=O)[C@H](C)O)CC2)cc2c(N[C@H](C)c3cccc(C(F)F)c3F)ccnc12 [Compound B-176]
IC50 (KRAS-G12C/SOS1): ≤ 100 nM
IC50 (p-ERK of PC-9 cells): 300 to 1000 nM
